Earlier results on one compound are cited in patent US8968801B1, “Supplement composition for supporting DNA repair and method of use” (Cellhealth Technologies Ltd., priority 2011, dated 2015).

Structures are written as SMILES.

The data set relates to ras-transformed human mammary epithelial cells. The note with it: eupatilin derived from artemisia plants (Kim D H, et al. 2004).

For the compound `COc1ccc(-c2cc(=O)c3c(O)c(OC)c(O)cc3o2)cc1OC` [eupatilin], the cell cycle arrest entry is on record as “induces cell cycle arrest”.
